Experimental data reported in US20170029355A1, “LABILE ESTERS OF AGROCHEMICALS FOR CONTROLLED RELEASE AND REDUCTION OF OFF-SITE MOVEMENT” (Monsanto Technology LLC, priority 2011, published 2017).

Legend:
[1] = In vitro dicamba photo-release from photo-labile dicamba esters, acetonitrile/10% water solvent (Example 27); assay type: physicochemical; conditions: acetonitrile containing 10% water
Protocol: This Example describes in vitro testing of dicamba photo-release by homogeneous solutions of photo-labile dicamba esters. The esters were dissolved in tetrahydrofuran (THF). Ester concentration was 0.1 mM. 25 ml of the solution was transferred to 22 mm tubes fabricated from graded seal quartz tubing with a 19/22 tapered seal at the top, which was closed with a tapered glass plug and secured with a plastic ring clamp. The solution was entirely below the quartz-to-glass transition, ensuring that the entire volume was exposed to the full spectrum.
The sealed tubes were placed in a Growth Chamber where they were exposed to simulated sunlight for 14 hours per day at 35° C. Dicamba concentrations in the solution were measured during the course of the photolysis.
A sample of the initial solution was reserved in a glass vial away from the light source and analyzed at the conclusion of the study, providing a measurement of the amount of dicamba present without illumination of the photolysis solution (the “dark control”).
This Example is another photolysis of photo-labile dicamba esters, but using acetonitrile containing 10% water by weight as the solvent. The experimental protocol is otherwise the same as in Example 18.

[2] = Photolysis / cleavage of the esters to dicamba (statements of the description); assay type: physicochemical; conditions: qualitative
Text: The efficacy of the photolabile esters can be assayed in vitro, or in greenhouse or field experiments. A useful in vitro assay for post-emergent activity involves photolysis of a dilute solution of the esters using simulated sunlight. This is conveniently achieved by photolysis of a solution of the ester in an organic solvent which is miscible with water and to which some water has been added. As described in the Examples, photolysis in acetonitrile or tetrahydrofuran containing 10% water by weight is effective. Low concentrations of the ester should be used so that the entire volume is exposed to sunlight. Since the maximum extinction coefficient of the typical esters above 220 nm is in the range of 1000-10,000 M^−1 cm^−1, a concentration of 0.1 mM is effective. Photolysis in a quartz tube exposed to simulated or actual sunlight is a typical protocol.

[3] = Solubility of the esters (statements of the description); assay type: physicochemical; conditions: qualitative
velvetleaf = experiment: Greenhouse post-emergent control of velvetleaf by emulsifiable concentrates (Example 37); assay type: in vivo; conditions: Abutilon theophrasti, post-emergence, 504 h, greenhouse, Example 37; for pest or weed control at 140 g/ha: read-out: % Control of velvetleaf, 140 g/ha; for pest or weed control at 280 g/ha: read-out: % Control of velvetleaf, 280 g/ha; for pest or weed control at 420 g/ha: read-out: % Control of velvetleaf, 420 g/ha; for pest or weed control at 560 g/ha: read-out: % Control of velvetleaf, 560 g/ha
Protocol: The efficacy of some photo-labile ester formulations from Example 28 for post-emergent control of velvetleaf was tested in the greenhouse. All formulations were tested at rates of 140, 280, 420, and 560 g dicamba equivalent per hectare rates and compared to the diglycolamine salt of dicamba (CLARITY®) at the same rates and untreated control plants. The velvetleaf plants were 10-15 cm in height at the time of spraying. Percent control was evaluated three weeks after treatment.
The methodology of Example 29 was used to evaluate the efficacy of several esters of dicamba which convert to dicamba by hydrolysis for post-emergent control of velvetleaf as emulsifiable concentrate formulations.

[4] = In vitro photo-release and hydrolytic release of dicamba in an aqueous medium (Example 36); assay type: physicochemical; conditions: 0.01 mM (0.005 mM for diesters); for Conversion to Dicamba, Dark, Day 0 / Conversion to Dicamba, Dark, Day 1 / Conversion to Dicamba, Dark, Day 2 / Conversion to Dicamba, Dark, Day 3 / Conversion to Dicamba, Dark, Day 4 / Conversion to Dicamba, Dark, Day 7 / Conversion to Dicamba, Dark, Day 14 / Conversion to Dicamba, Dark, Day 21 / Conversion to Dicamba, Dark, Day 28: amber (dark) bottle; for Conversion to Dicamba, Light, Day 0 / Conversion to Dicamba, Light, Day 1 / Conversion to Dicamba, Light, Day 2 / Conversion to Dicamba, Light, Day 3 / Conversion to Dicamba, Light, Day 4 / Conversion to Dicamba, Light, Day 7 / Conversion to Dicamba, Light, Day 14 / Conversion to Dicamba, Light, Day 21 / Conversion to Dicamba, Light, Day 28: quartz tube
Protocol: This Example describes the determination of photo-lability and hydrolytic lability of dicamba esters in an aqueous medium. 1 mM solutions of the esters were prepared in acetonitrile (or […] solutions of dicamba diesters). The solutions were then diluted with deionized water to a concentration of 0.01 mM (or 0.005 mM for diesters). The solutions were then transferred to quartz tubes and amber bottles and held in a growth chamber by the procedure of Example 26. A 14-hour day was generally used at a constant temperature of 35° C. Hydrolytic activity was assessed by measuring the increase in dicamba concentration after day zero in the amber (dark) bottles. […] Photolysis manifested itself as increased conversion in the quartz tubes compared to the dark control.
This Example provides the results of an aqueous lability test following the protocol of Example 35 for several dicamba esters which convert to dicamba primarily by hydrolysis. As shown by the results in the table below, conversion of the dark controls generally equaled or exceeded conversion in the photolysis solutions.

Euphorbia species = experiment: Field testing for post-emergent activity in the Southern Hemisphere (Example 39); assay type: in vivo; conditions: 9 as suspension concentrate, other esters as emulsifiable concentrates; for % control, 0.25 lb/ac (0.28 kg/hectare): 0.25 lb dicamba a.e. per acre; for % control, 0.50 lb/ac (0.56 kg/hectare): 0.50 lb dicamba a.e. per acre
Protocol: The primary weeds were Euphorbia species. Ester 9 was tested as a suspension concentrate using the formulation of Example 33 The other esters were tested as emulsifiable concentrates having the formulations shown in the table below. Akzo Nobel SPONTO EC 334 and SPONTO EC 336 along with SURFONIC CO-54 and […] (Huntsman) were used as emulsifiers and Aromatic 200 (A 200; Exxon) was used as the solvent. […] The diglycolamine salt of dicamba (CLARITYTM) was used as a comparator.

broadleaf weeds = experiment: Control of broadleaf weeds by ester concentrates (statements of the description); assay type: in vivo; conditions: emulsifiable and suspension concentrates; Sesbania macrocarpa, morning glory, velvetleaf, Palmer amaranth, fat hen, sicklepod

Row | SMILES | cleavage to form dicamba, in words [2] | solubility, in words [3] | pest or weed control at 140 g/ha (velvetleaf) [%] | pest or weed control at 280 g/ha (velvetleaf) [%] | pest or weed control at 420 g/ha (velvetleaf) [%] | pest or weed control at 560 g/ha (velvetleaf) [%] | Conversion to Dicamba, Dark, Day 0 [4] [%] | Conversion to Dicamba, Dark, Day 1 [4] [%] | Conversion to Dicamba, Dark, Day 2 [4] [%] | Conversion to Dicamba, Dark, Day 3 [4] [%] | Conversion to Dicamba, Dark, Day 4 [4] [%] | Conversion to Dicamba, Dark, Day 7 [4] [%] | Conversion to Dicamba, Dark, Day 14 [4] [%] | Conversion to Dicamba, Light, Day 0 [4] [%] | Conversion to Dicamba, Light, Day 1 [4] [%] | Conversion to Dicamba, Light, Day 2 [4] [%] | Conversion to Dicamba, Light, Day 3 [4] [%] | Conversion to Dicamba, Light, Day 4 [4] [%] | Conversion to Dicamba, Light, Day 7 [4] [%] | Conversion to Dicamba, Light, Day 14 [4] [%] | also measured
1 | COc1c(Cl)ccc(Cl)c1C(=O)Oc1ccccn1 [Ester 14, 2-Hydroxypyridine Ester of Dicamba] | undergoes efficient cleavage to form dicamba | readily soluble in organic solvents | 40 | 58.3 | 80.8 | 85 | 2 | 68 | 81 | 84 | 86 | 92 | 90 | 2 | 61 | 63 | 64 | 68 | 67 | 71 | Dark Control % dicamba ([1]; no illumination): 0%; Conversion to dicamba, 1 day ([1]; simulated sunlight, 1 day): 6%; Conversion to dicamba, 2 days ([1]; simulated sunlight, 2 days): 9%; Conversion to dicamba, 3 days ([1]; simulated sunlight, 3 days): 10%; Conversion to dicamba, 5 days ([1]; simulated sunlight, 5 days): 12%; Conversion to dicamba, 7 days ([1]; simulated sunlight, 7 days): 12%; Conversion to dicamba, 11 days ([1]; simulated sunlight, 11 days): 19%; Conversion to dicamba, 13 days ([1]; simulated sunlight, 13 days): 21%; Conversion to dicamba, 15 days ([1]; simulated sunlight, 15 days): 25%; Conversion to dicamba, 19 days ([1]; simulated sunlight, 19 days): 26%; Conversion to Dicamba, Dark, Day 21 [4]: 91%; Conversion to Dicamba, Dark, Day 28 [4]: 97%; Conversion to Dicamba, Light, Day 21 [4]: 71%; Conversion to Dicamba, Light, Day 28 [4]: 75%; % control, 0.25 lb/ac (0.28 kg/hectare) (Euphorbia species): 47%; % control, 0.50 lb/ac (0.56 kg/hectare) (Euphorbia species): 56%; control of a number of broadleaf weeds in field testing, in words (broadleaf weeds): proven effective
2 | COc1c(Cl)ccc(Cl)c1C(=O)Oc1ccc(OC(=O)c2c(Cl)ccc(Cl)c2OC)nn1 [Ester 17, Maleic Hydrazide Diester of Dicamba] | undergo efficient cleavage to form dicamba | readily soluble in organic solvents | 23.3 | 41.7 | 75 | 73.3 | 6 | 16 | 26 | 35 | 41 | 49 | 60 | 6 | 18 | 26 | 33 | 36 | 42 | 53 | % control, 0.25 lb/ac (0.28 kg/hectare) (Euphorbia species): 41%; % control, 0.50 lb/ac (0.56 kg/hectare) (Euphorbia species): 53%; control of a number of broadleaf weeds in field testing, in words (broadleaf weeds): proven effective
3 | COc1c(Cl)ccc(Cl)c1C(=O)Oc1nnc(OC(=O)c2c(Cl)ccc(Cl)c2OC)c2ccccc12 [Ester 18, Phthalhydrazide Diester of Dicamba] | undergo efficient cleavage to form dicamba | highly insoluble |  |  |  |  |  |  |  |  |  |  |  |  |  |  |  |  |  |  | 
4 | COc1c(Cl)ccc(Cl)c1C(=O)Oc1ccc(=O)n(CCC#N)n1 [Ester 34a] |  | insoluble solid |  |  |  |  | 3 | 9 | 14 | 18 | 23 | 38 | 56 | 3 | 10 | 14 | 16 | 20 | 29 | 48 | Conversion to Dicamba, Dark, Day 21 [4]: 71%; Conversion to Dicamba, Dark, Day 28 [4]: 87%; Conversion to Dicamba, Light, Day 21 [4]: 60%; Conversion to Dicamba, Light, Day 28 [4]: 71%
